ChEMBL document CHEMBL1255238, “Induction of erm(C) expression by noninducing antibiotics” (2008)
In brackets after ≈: the same amount, converted by molar mass. Activity calls are given as the source filed them. The calls are words filed in the database; no cut-off is given here.

Experiments:
Escherichia coli [1] = test: Induction of erm(C) expression in Escherichia coli JM109 harboring Staphylococcus aureus erm(C)-containing pERMZalpha reporter plasmid at 10 mg/ml after 36 hrs at 37 degC by disc-based beta-galactosidase reporter gene assay; type: functional, organism-based
Escherichia coli [2] = test: Antimicrobial activity against Escherichia coli ZK796 harboring empty plasmid; type: functional
Escherichia coli [3] = test: Antimicrobial activity against Escherichia coli ZK796 harboring Staphylococcus aureus erm(C)-containing pERMCT plasmid; type: functional
Escherichia coli [4] = test: Induction of erm(C) expression in Escherichia coli JM109 harboring Staphylococcus aureus erm(C)-containing pERMZ7 lacking codons 2 to 4 with additional mutations leader peptide cistrons reporter plasmid at 25 mg/ml after 36 hrs at 37 degC by disc-based beta-galactosidase reporter gene assay; type: functional, organism-based
Escherichia coli [5] = test: Induction of erm(C) expression in Escherichia coli JM109 harboring Staphylococcus aureus erm(C)-containing pERMZdelta2-4 mutant leader peptide cistrons reporter plasmid at 25 mg/ml after 36 hrs at 37 degC by disc-based beta-galactosidase reporter gene assay; type: functional, organism-based
Escherichia coli [6] = test: Induction of erm(C) expression in Escherichia coli JM109 harboring Staphylococcus aureus erm(C)-containing pERMZalpha reporter plasmid at 1.5 mg/ml after 36 hrs at 37 degC by disc-based beta-galactosidase reporter gene assay; type: functional, organism-based
Escherichia coli [7] = test: Induction of erm(C) expression in Escherichia coli JM109 harboring Staphylococcus aureus erm(C)-containing pERMZalpha reporter plasmid after 36 hrs at 37 degC by disc-based beta-galactosidase reporter gene assay; type: functional, organism-based
Escherichia coli [8] = test: Induction of erm(C) expression in Escherichia coli ZK796 harboring Staphylococcus aureus erm(C)-containing pERMCT plasmid assessed as increase in A2058 dimethylation in 23S rRNA at 0.4 ug/ml after 4 hrs by primer extension assay; type: functional, organism-based
Escherichia coli [9] = test: Induction of erm(C) expression in Escherichia coli ZK796 harboring Staphylococcus aureus erm(C)-containing pERMCT plasmid assessed as increase in A2058 dimethylation in 23S rRNA at 0.4 ug/ml at 2 hrs by primer extension assay; type: functional, organism-based
Escherichia coli [10] = test: Induction of erm(C) expression in Escherichia coli ZK796 harboring Staphylococcus aureus erm(C)-containing pERMCT plasmid assessed as increase in A2058 dimethylation in 23S rRNA at 25% MIC after 4 hrs by primer extension assay; type: functional, organism-based
Escherichia coli [11] = test: Induction of erm(C) expression in Escherichia coli JM109 harboring Staphylococcus aureus erm(C)-containing pERMZalpha reporter plasmid after 36 hrs at 25 mg/ml 37 degC by disc-based beta-galactosidase reporter gene assay; type: functional, organism-based
Escherichia coli [12] = test: Induction of erm(C) expression in Escherichia coli JM109 harboring Staphylococcus aureus erm(C)-containing pERMZalpha reporter plasmid at 8 mg/ml after 36 hrs at 37 degC by disc-based beta-galactosidase reporter gene assay; type: functional, organism-based
Escherichia coli [13] = test: Induction of erm(C) expression in Escherichia coli JM109 harboring Staphylococcus aureus erm(C)-containing pERMZalpha reporter plasmid at 4.5 mg/ml after 36 hrs at 37 degC by disc-based beta-galactosidase reporter gene assay; type: functional, organism-based
Escherichia coli [14] = test: Induction of erm(C) expression in Escherichia coli ZK796 harboring Staphylococcus aureus erm(C)-containing pERMCT plasmid assessed as increase in A2058 dimethylation in 23S rRNA at 0.8 ug/ml after 30 mins by primer extension assay; type: functional, organism-based

Compound	Activity (Escherichia coli [1])	Activity (Escherichia coli [4])	Activity (Escherichia coli [5])	Activity (Escherichia coli [10])	further results
CC[C@H]1OC(=O)C[C@@H](O)[C@H](C)[C@@H](O[C@@H]2O[C@H](C)[C@@H](O[C@H]3C[C@@](C)(O)[C@@H](O)[C@H](C)O3)[C@H](N(C)C)[C@H]2O)[C@@H](CC=O)C[C@@H](C)C(=O)/C=C/C(C)=C/[C@@H]1CO[C@@H]1O[C@H](C)[C@@H](O)[C@@H](OC)[C@H]1OC	inactive				
O=C(N[C@H](CO)[C@H](O)c1ccc([N+](=O)[O-])cc1)C(Cl)Cl [CHLORAMPHENICOL]					MIC (Escherichia coli [2]): 2 µg/mL (≈ 6.19 µM); MIC (Escherichia coli [3]): 2 µg/mL (≈ 6.19 µM)
CC[C@H]1OC(=O)[C@H](C)[C@@H](O[C@H]2C[C@@](C)(OC)[C@@H](O)[C@H](C)O2)[C@H](C)[C@@H](O[C@@H]2O[C@H](C)C[C@H](N(C)C)[C@H]2O)[C@](C)(OC)C[C@@H](C)C(=O)[C@H](C)[C@@H]2N(NCCCc3ccnc4ccccc34)C(=O)O[C@@]21C	Active	inactive	inactive		
CC[C@H]1OC(=O)[C@H](C)C(=O)[C@H](C)[C@@H](O[C@@H]2O[C@H](C)C[C@H](N(C)C)[C@H]2O)[C@](C)(OC)C[C@@H](C)C(=O)[C@H](C)[C@H]2N(CCCCn3cnc(-c4cccnc4)c3)C(=O)O[C@]12C [TELITHROMYCIN]		inactive	inactive	Active	Activity (Escherichia coli [6]): Active; Activity (Escherichia coli [7]): Active; Activity (Escherichia coli [8]): Active; Activity (Escherichia coli [9]): inactive; MIC (Escherichia coli [2]): 1.5 µg/mL (≈ 1.85 µM); MIC (Escherichia coli [3]): 1.5 µg/mL (≈ 1.85 µM)
CC[C@H]1OC(=O)[C@@](C)(F)C(=O)[C@H](C)[C@@H](O[C@@H]2O[C@H](C)C[C@H](N(C)C)[C@H]2O)[C@](C)(OC)C[C@@H](C)C(=O)[C@H](C)[C@@H]2N(CCCCn3cnc(-c4cccnc4)c3)C(=O)O[C@@]21C		inactive	inactive		Activity (Escherichia coli [7]): Active
CC[C@H]1OC(=O)[C@H](C)[C@@H](O[C@H]2C[C@@](C)(OC)[C@@H](O)[C@H](C)O2)[C@H](C)[C@@H](O[C@@H]2O[C@H](C)C[C@H](N(C)C)[C@H]2O)[C@](C)(O)C[C@@H](C)CN(C)[C@H](C)[C@@H](O)[C@]1(C)O		inactive	inactive	Active	Activity (Escherichia coli [11]): inactive
CC[C@H]1OC(=O)[C@H](C)[C@@H](O[C@H]2C[C@@](C)(OC)[C@@H](O)[C@H](C)O2)[C@H](C)[C@@H](O[C@@H]2O[C@H](C)C[C@H](N(C)C)[C@H]2O)[C@](C)(OC)C[C@@H](C)C(=O)[C@H](C)[C@@H](O)[C@]1(C)O		inactive	inactive		Activity (Escherichia coli [12]): Active
CC[C@H]1OC(=O)[C@H](C)[C@@H](O[C@H]2C[C@@](C)(OC)[C@@H](O)[C@H](C)O2)[C@H](C)[C@@H](O[C@@H]2O[C@H](C)C[C@H](N(C)C)[C@H]2O)[C@](C)(OC)C[C@@H](C)C(=O)[C@H](C)[C@@H]2N(CCCCn3cnc(-c4cccnc4)c3)C(=O)O[C@@]21C	Active			Active	
CC[C@H]1OC(=O)[C@H](C)C(=O)[C@H](C)[C@@H](O[C@@H]2O[C@H](C)C[C@H](N(C)C)[C@H]2O)[C@](C)(OC)C[C@@H](C)C(=O)[C@H](C)[C@@H]2N(NCCc3ccccc3)C(=O)O[C@@]21C		inactive	inactive		
CC[C@H]1OC(=O)[C@H](C)C(=O)[C@H](C)[C@@H](O[C@@H]2O[C@H](C)C[C@H](N(C)C)[C@H]2O)[C@](C)(OCC=Cc2cnc3ccccc3c2)C[C@@H](C)C(=O)[C@H](C)[C@H]2NC(=O)O[C@@]21C [CETHROMYCIN]		inactive	inactive	Active	Activity (Escherichia coli [7]): Active; MIC (Escherichia coli [2]): 1.5 µg/mL (≈ 1.96 µM); MIC (Escherichia coli [3]): 1.5 µg/mL (≈ 1.96 µM)
CC[C@H]1OC(=O)[C@H](C)[C@@H](O[C@H]2C[C@@](C)(OC)[C@@H](O)[C@H](C)O2)[C@H](C)[C@@H](O[C@@H]2O[C@H](C)C[C@H](N(C)C)[C@H]2O)[C@](C)(O)C[C@@H](C)C(=O)[C@H](C)[C@@H](O)[C@]1(C)O [ERYTHROMYCIN]		inactive	inactive	Active	Activity (Escherichia coli [13]): Active; Activity (Escherichia coli [14]): Active; MIC (Escherichia coli [2]): 3 µg/mL (≈ 4.09 µM); MIC (Escherichia coli [3]): 25 µg/mL (≈ 34.1 µM)
CC[C@H]1OC(=O)[C@H](C)[C@@H](O[C@H]2C[C@@](C)(OC)[C@@H](O)[C@H](C)O2)[C@H](C)[C@@H](O[C@@H]2O[C@H](C)C[C@H](N(C)C)[C@H]2O)[C@](C)(O)C[C@@H](C)/C(=N\OCOCCOC)[C@H](C)[C@@H](O)[C@]1(C)O		inactive	inactive		
SPIRAMYCIN	inactive				
CC[C@H]1OC(=O)[C@H](C)C(=O)[C@H](C)[C@@H](O[C@@H]2O[C@H](C)C[C@H](N(C)C)[C@H]2O)[C@](C)(OC)C[C@@H](C)C(=O)[C@H](C)[C@@H]2N(NCCCc3ccnc4ccccc34)C(=O)O[C@@]21C		inactive	inactive		Activity (Escherichia coli [6]): Active; Activity (Escherichia coli [7]): Active
CO[C@@H]1[C@@H](O[C@@H]2O[C@H](C)[C@@H](O[C@H]3C[C@@](C)(O)[C@@H](OC(=O)CC(C)C)[C@H](C)O3)[C@H](N(C)C)[C@H]2O)[C@@H](CC=O)C[C@@H](C)[C@@H](O)/C=C/C=C/C[C@@H](C)OC(=O)C[C@H]1OC(C)=O	inactive				
